Results from patent publication US11673861B2, “Perfluorinated 1-alkoxypropenes, compositions, and methods and apparatuses for using same” (priority 2017, dated 2023).

How the values were obtained:
[1] = Dielectric breakdown strength, ASTM D877-13 Procedure A; assay type: physicochemical; conditions: electrode spacing 2.54 mm, rate of rise 500 V/sec
Method: (§1) Dielectric breakdown strength and dielectric constant were measured for PE-1, PE-2, CE-1 to CE-4. The dielectric constants presented in Table 7, below, were measured using the broadband Novocontrol Dielectric Spectrometer per ASTM D150-11. The dielectric breakdown strengths presented in Table 7 were measured according to ASTM D877-13, Procedure A, with the following modification: spacing between the electrodes was 2.54 mm and rate of rise was 500 V/sec.

[2] = Dielectric constant, ASTM D150-11; assay type: physicochemical
Method: as §1

[3] = test system: rats; assay: Toxicity screening study in rats, 4 h inhalation LC-50; assay type: in vivo
Method: MA-3 (50 g, 160 mmol) was charged to a 3-neck flask equipped with a water-cooled condenser and magnetic stir bar. SbF5 was then added dropwise to the stirring MA-3 and a large exotherm was observed. The resultant reaction mixture was allowed to stir at room temperature for 1 h. GC-FID analysis of the reaction mixture indicated complete consumption of the MA-3 starting material. Water was then added to the mixture with stirring. The fluorous phase was collected and distilled by concentric tube distillation (59° C., 740 mmHg, 98.7 kPa) affording the desired MP-3 (41.2 g, 82% yield) as a colorless liquid. Both E- and Z-isomers were obtained as a mixture. […] The structure was confirmed by GC-MS and ^19F NMR analyses to be that of the desired product.

[4] = Pour point, determined visually; assay type: physicochemical
Method: The useful liquid range of a perfluorinated 1-alkoxypropene compound of the present disclosure is between its pour point and its boiling point. A pour point is the lowest temperature at which the compound is still able to be poured. The pour point can be determined, for example, by ASTM D97-16 “Standard Test Method for Pour Point of Petroleum Products.” In one embodiment, the compounds of the present disclosure have a pour point of less than −100° C., less than −120° C., less than −130° C., or less than −140° C. Pour Point can be measured by placing a sealed glass vial containing 3 mL of the fluid into a refrigerated bath, adjusting temperature incrementally and checking for pouring. Pouring is defined as visible movement of the material during a five second count. This criterion is specified in ASTM D97-16.
One to two milliliters of the sample were placed in a vial and cooled in a bath until it solidified. The sample was then allowed to warm slowly in the bath and observed every 3-5° C.

[5] = Boiling point, ASTM D1120-94; assay type: physicochemical; conditions: temperature at 760 mmHg
Method: Vapor Pressure was measured using the stirred-flask ebulliometer method described in ASTM E1719-97 “Vapor Pressure Measurement by Ebulliometry.” This method is also referred to as “Dynamic Reflux.” The boiling point was measured using ASTM D1120-94 “Standard Test Method for Boiling Point of Engine Coolants.” The method used a 50-mL glass round-bottom flask. Vacuum was measured and controlled using a vacuum controller available from J-KEM Scientific, Inc., St. Louis, Mo., USA. The pressure transducer was calibrated on the day of measurement by comparison with full vacuum and with an electronic barometer located in the same laboratory. The procedure was carried out by slowly heating the material, then applying vacuum until boiling occurred and a steady dropwise reflux rate was established. Pot temperature and pressure reading were recorded, then the vacuum controller was set for a higher absolute pressure and the material was heated further until a new reflux point was established. The pressure level was raised in increments until the vapor pressure curve was obtained up to the atmospheric boiling point.
The boiling point of PE-1 is 60.1° C., which is the temperature at 760 mmHg. The boiling point of PE-2 is 88.1° C., which is the temperature at 760 mmHg.

[6] = Thermal stability with absorbents, GC-FID purity; assay type: physicochemical
Method: The thermal stability was measured by charging 1.0 g of Preparatory Example 2 into glass vials and then adding 0.10 g of absorbent. The samples were stirred for 24 h at 50° C. and then analyzed by GC-FID for decomposition and purity changes.

| Compound | Dielectric Breakdown Voltage [1] | Dielectric Constant (measured at 1 kHz) [2] | 4 h inhalation LC-50 [3] | Pour point [4] | Boiling point [5] | Purity (%) ([6]; 4 Angstrom Molecular Sieves, 24 h at 50° C.) | Purity (%) ([6]; Activated Carbon, 24 h at 50° C.) | Purity (%) ([6]; Basic Alumina, 24 h at 50° C.) | Purity (%) ([6]; K2CO3, 24 h at 50° C.) | Purity (%) ([6]; No Absorbent, 24 h at 50° C.) | Purity (%) ([6]; Silica Gel, 24 h at 50° C.) |
| --- | --- | --- | --- | --- | --- | --- | --- | --- | --- | --- | --- |
| FC(F)=C(F)C(F)(F)OC(F)(F)C(F)(F)C(F)(F)F [MA-3, 1,1,2,3,3-pentafluoro-3-(perfluoropropoxy)prop-1-ene, reference compound] | 30.7 kV | 2.37 | – | – | – | – | – | – | – | – | – |
| FC(F)=C(F)C(F)(F)OC(F)(F)C(F)(F)C(F)(F)OC(F)(F)F [MA-31, 1,1,2,3,3-Pentafluoro-3-(1,1,2,2,3,3-hexafluoro-3-(trifluoromethoxy)propoxy)prop-1-ene, reference compound] | 39.4 kV | 2.37 | – | – | – | – | – | – | – | – | – |
| FC(OC(F)(F)C(F)(F)C(F)(F)F)=C(F)C(F)(F)F [PE-1, 1,2,3,3,3-pentafluoro-1-(perfluoropropoxy)prop-1-ene] | 41.7 kV | 2.04 | greater than 10,000 ppm | −145 °C | 60.1 °C | – | – | – | – | – | – |
| FC(OC(F)(F)C(F)(F)C(F)(F)OC(F)(F)F)=C(F)C(F)(F)F [PE-2, 1,2,3,3,3-pentafluoro-1-(1,1,2,2,3,3-hexafluoro-3-(trifluoromethoxy)propoxy)prop-1-ene] | >60 kV | 2.04 | – | −140 °C | 88.1 °C | 99.5% | 99.5% | 99.5% | 99.3% | 99.5% | 99.4% |
